Reference: publication PMC6948154 (Cell reports, 2019)

What was measured:
[1] = target: Hedgehog acyltransferase (Hhat) (Homo sapiens, UniProt Q5VTY9, Y351A); assay: in vitro Shh peptide palmitoylation by purified Y351A Hhat; assay type: biochemical
[2] = target: Hedgehog acyltransferase (Hhat) (Homo sapiens, UniProt Q5VTY9); assay: NBD-palmitoyl-CoA uptake into liposomes with purified Hhat; assay type: biochemical
Sequence of Hedgehog acyltransferase (Hhat) (Homo sapiens, UniProt Q5VTY9) (Q5VTY9 whole entry): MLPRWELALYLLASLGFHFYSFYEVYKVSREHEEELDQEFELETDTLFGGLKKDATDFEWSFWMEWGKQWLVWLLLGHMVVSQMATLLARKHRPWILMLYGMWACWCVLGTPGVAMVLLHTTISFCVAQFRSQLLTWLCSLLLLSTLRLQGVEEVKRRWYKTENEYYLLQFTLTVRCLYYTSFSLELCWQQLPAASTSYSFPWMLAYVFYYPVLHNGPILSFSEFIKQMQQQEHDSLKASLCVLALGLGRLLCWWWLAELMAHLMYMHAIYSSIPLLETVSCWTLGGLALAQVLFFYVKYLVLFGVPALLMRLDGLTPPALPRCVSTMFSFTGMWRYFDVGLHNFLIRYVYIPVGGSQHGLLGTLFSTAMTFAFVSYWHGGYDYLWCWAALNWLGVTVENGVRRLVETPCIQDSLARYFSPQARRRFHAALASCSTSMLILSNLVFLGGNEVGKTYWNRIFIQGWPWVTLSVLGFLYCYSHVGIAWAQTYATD

Sequence of Hedgehog acyltransferase (Hhat) (Homo sapiens, UniProt Q5VTY9, Y351A) (Q5VTY9 whole entry Y351A): as the sequence (Q5VTY9 whole entry) above, with Y351A counted along it

| IC50 [2] [nM] | Molecule | in vitro Shh peptide palmitoylation by purified Y351A Hhat [1] |
| --- | --- | --- |
|  | CC(C)(COP(=O)(O)OP(=O)(O)OC[C@H]1O[C@@H](n2cnc3c(N)ncnc32)[C@H](O)[C@@H]1OP(=O)(O)O)[C@@H](O)C(=O)NCCC(=O)NCCSC(=O)CCCCCCCCCCCCCCCI [[125I] IodoPalmitoyl-CoA] | Y351A retained near-WT levels of Shh palmitoylation activity when assayed in vitro using detergent-solubilized membranes and as a purified enzyme |
| 2450 | TDI-3410 |  |
